Patent US7960560B2, “1-(biphenyl-4-ylmethyl)imidazolidine-2,4-dione” (N.V. Organon, priority 2008, dated 2011)

What was measured:
[1] = tested on: mechanical hyperalgesia induced by complete Freund's adjuvant in rats; assay: Mechanical hyperalgesia in the rat (CFA model of inflammatory pain); assay type: in vivo; conditions: for % Attenuation of hyperalgesia (peak effect): male Wistar rats, 24 h after CFA, reading 3 h post drug, vehicle −0.6 ± 11
Procedure: Mechanical Hyperalgesia in the Rat
In this rat model of inflammatory pain, inflammation is induced by subcutaneous injection of complete Freund's adjuvant (CFA) into the hind paw. The associated mechanical hyperalgesia is quantified by measuring the reduction in paw withdrawal threshold (PWT) to a mechanical compression of the paw.
Experiments were in male Wistar rats weighing (141-175 g). In brief, the rats' paw withdrawal threshold (PWT) to a mechanical compression of the hind paw was measured (baseline reading) using a Randall-Sellito apparatus (Ugo Basile). A cut-off of 20 g was employed to minimise tissue damage to the paw. The animals were then lightly anaesthetised with isoflurane (1-3%) and CFA (0.1 ml.paw^−1) injected subcutaneously (s.c.) into the plantar surface of the left hind paw. The animals were then returned to their home cage and left for the inflammation to develop.
Twenty four h after CFA injection, PWT's were re-measured (0 min) and immediately after this reading, rats were dosed orally with either vehicle or compound 3K (4.5-45 μmol/kg p.o.) Readings were then made at 3 h post drug administration.
Data were plotted as mean±s.e.m. and compared between groups using the Kruskal-Wallis one-way analysis of variance, a non-parametric statistical test.
The percent attenuation of mechanical hyperalgesia is calculated as follows.

[2] = tested on: mechanical allodynia induced by spinal nerve ligation in rats; assay: The rat (Chung) model of neuropathic pain; assay type: in vivo; conditions: for Withdrawal threshold (g) at peak effect: male Wistar rats, von Frey, vehicle 2.7 ± 0.2
Procedure: The Rat (Chung) Model of Neuropathic Pain
In this model, mechanical allodynia is induced by tight ligation of the left L5 spinal nerve.
Male Wistar rats (228-301 g body weight at time of surgery) were employed in the study. Rats were placed on an elevated (˜40 cm) mesh floor in perspex boxes and the rats' withdrawal threshold to a mechanical stimulus (calibrated von Frey filaments) was measured using filaments of increasing force (2.6-167 mN). The von Frey filaments were applied to the plantar surface of the paw and threshold response determined using the up and down method. A positive response was noted if the paw was sharply withdrawn. A cut-off of 15 g was selected as the upper limit for testing. Following baseline measurements each animal was anaesthetised and the L5 spinal nerve tightly ligated. The animals were allowed to recover from the surgery for a period of at least three days. On the day of drug administration the paw withdrawal thresholds were re-measured (0 min). Immediately after this reading, the rats were dosed orally with vehicle or test compound and readings measured at various time points after compound administration.
Data were expressed as mean±s.e.m. Statistical analysis was performed using the Kruskal-Wallis one-way analysis of variance, a non-parametric statistical test. Each of the treatment groups were then compared against the vehicle group, using the non-parametric Dunn's test.

O=C1CN(Cc2ccc(-c3ccccc3CN3CCOCC3)cc2)C(=O)N1CC1CC1 [Example 3K, 3-Cyclopropylmethyl-1-(2′-(morpholin-4-ylmethyl)biphenyl-4-ylmethyl)imidazolidine-2,4-dione]
% Attenuation of hyperalgesia (peak effect) ([1]; 4.5 μmol/kg p.o.): 36 ± 11% | % Attenuation of hyperalgesia (peak effect) ([1]; 45 μmol/kg p.o., p ≦ 0.001): 100 ± 25 % | Effect on mechanical hyperalgesia induced by CFA ([1]; 4.5-45 μmol/kg oral): reversed mechanical hyperalgesia induced by CFA in a dose-dependent fashion | MED ([1]; p.o., CFA-induced mechanical hyperalgesia, rat): 4.4 µmol/kg | Withdrawal threshold (g) at peak effect ([2]; 4.5 μmol/kg p.o.): 5.8 ± 1.1 g | Withdrawal threshold (g) at peak effect ([2]; 15 μmol/kg p.o., p ≦ 0.05): 6.4 ± 1.0 g | Withdrawal threshold (g) at peak effect ([2]; 45 μmol/kg p.o., p ≦ 0.05): 7.4 ± 1.3 g | Effect on mechanical allodynia ([2]; 4.5-45 μmol/kg p.o., at 120 and 180 min post drug administration): attenuated mechanical allodynia in a dose-dependent fashion | Minimum effective dose (MED) ([2]; p.o., mechanical allodynia, rat): 15 µmol/kg
